Data taken from BindingDB's records for doi:10.1016/s0960-894x(02)00585-1 (Corvas International, 2002).
pKi: −log10 of the molar value.

Biological target: Prothrombin (Homo sapiens, UniProt P00734)
Assay: In vitro inhibitory activity against human Thrombin (FIIa) cleavage of the chromogenic substrate

First: Cc1ccc(NS(=O)(=O)c2ccc3c(c2)CCO3)c(=O)n1CC(=O)NCc1ccc2c[nH]nc2c1
Second: Cc1ccc(NS(=O)(=O)c2ccc3c(c2)CCO3)c(=O)n1CC(=O)NCc1ccc2[nH]ncc2c1
The pKi of the first is 2.53 log units lower: 5.88 for the first, 8.41 for the second. The second binds more tightly here.

Going from Cc1cc2cn[nH]c2cc1CNC(=O)Cn1c(C)ccc(NS(=O)(=O)Cc2ccccc2)c1=O to Cc1nc(N)ccc1CNC(=O)Cn1c(C)ccc(NS(=O)(=O)Cc2ccccc2)c1=O [L-374087], the pKi rises from 6.57 to 9.15 (2.58 log units).

Compared with Cc1cnc(NCCc2ccc3c(c2)CCC3)c(=O)n1CC(=O)NCc1ccc2[nH]ccc2c1, Cc1cnc(NCCc2ccc3c(c2)CCC3)c(=O)n1CC(=O)NCc1ccc2c(ccn2N)c1 is 2.61 log units lower in pKi: 7.52 for the first, 4.91 for the second.

Compared with Cc1cnc(NCCc2ccccn2)c(=O)n1CC(=O)NCc1ccc2[nH]ncc2c1, Cc1cnc(NCCc2ccccc2)c(=O)n1CC(=O)NCc1ccc2[nH]ncc2c1 is 0.77 log units lower in pKi: 8.51 for the first, 7.74 for the second. The first binds more tightly here.

First: Cc1cnc(NC[C@H](C)c2ccccc2)c(=O)n1CC(=O)NCc1ccc2[nH]ncc2c1
Second: Cc1cnc(NC[C@@H](C)c2ccccc2)c(=O)n1CC(=O)NCc1ccc2[nH]cnc2c1
The pKi of the first is 0.21 log units higher: 8.24 for the first, 8.03 for the second. The first binds more tightly here.

Going from Cc1ccc(NS(=O)(=O)Cc2ccccc2)c(=O)n1CC(=O)NCc1ccc2c(N)noc2n1 to Cc1ccc(NS(=O)(=O)Cc2ccccc2)c(=O)n1CC(=O)NCc1ccc2c(N)[nH]nc2n1, the pKi falls from 6.69 to 5.80 (0.89 log units). The first binds more tightly here.

Compared with Cc1cnc(NCC(F)(F)c2ccccc2)c(=O)n1CC(=O)NCc1ccc2[nH]nc(N)c2c1, Cc1cnc(NCC(F)(F)c2ccccc2)c(=O)n1CC(=O)NCc1ccc2c(N)noc2c1 is 0.21 log units higher in pKi: 8.39 for the first, 8.60 for the second.

First: Cc1cnc(NCC2(c3ccccc3)CCC2)c(=O)n1CC(=O)NCc1ccc2[nH]nc(O)c2c1
Second: Cc1cnc(NCCc2ccccc2)c(=O)n1CC(=O)NCc1ccc2[nH]nc(O)c2c1
The pKi of the first is 0.52 log units higher: 8.00 for the first, 7.48 for the second.

Compared with Cc1ccc(NS(=O)(=O)Cc2ccccc2)c(=O)n1CC(=O)NCc1ccc2c(N)[nH]nc2c1, Cc1ccc(NS(=O)(=O)Cc2ccccc2)c(=O)n1CC(=O)NCc1ccc2[nH]nc(N)c2c1 is 0.49 log units higher in pKi: 6.65 for the first, 7.14 for the second. The second binds more tightly here.

Compared with Cc1cnc(NCC2(c3ccc(F)cc3)CC2)c(=O)n1CC(=O)NCc1ccc2[nH]nc(N)c2c1, COc1ccc(C2(CNc3ncc(C)n(CC(=O)NCc4ccc5[nH]nc(N)c5c4)c3=O)CC2)cc1 is 0.23 log units higher in pKi: 7.82 for the first, 8.05 for the second.

Compared with Cc1cnc(NCC2(c3ccccn3)CC2)c(=O)n1CC(=O)NCc1ccc2c(N)noc2c1, Cc1cnc(NCC2(c3ccc(F)cc3)CC2)c(=O)n1CC(=O)NCc1ccc2c(N)noc2c1 is 0.21 log units higher in pKi: 7.59 for the first, 7.80 for the second.

First: Cc1cnc(NCC(c2ccccc2)c2ccccc2)c(=O)n1CC(=O)NCc1ccc2c(N)noc2c1
Second: Cc1cnc(NCCc2ccccc2)c(=O)n1CC(=O)NCc1ccc2c(N)noc2c1
The pKi of the first is 0.42 log units higher: 7.51 for the first, 7.09 for the second. The first binds more tightly here.

First: Cc1ccc(NS(=O)(=O)c2ccc3c(c2)CCO3)c(=O)n1CC(=O)NCc1ccc2[nH]nc(N)c2c1
Second: Cc1ccc(NS(=O)(=O)Cc2ccccc2)c(=O)n1CC(=O)NCc1ccc2c(N)noc2c1
The pKi of the first is 0.41 log units higher: 7.54 for the first, 7.13 for the second.

Cc1ccc(NS(=O)(=O)Cc2ccc(Cl)cc2)c(=O)n1CC(=O)NCc1ccc2[nH]cnc2c1 and COc1ccc(CCNc2ncc(C)n(CC(=O)NCc3ccc4[nH]cnc4c3)c2=O)cc1 are within 0.2 log units of each other in pKi: 8.19 for the first, 8.30 for the second.

Compared with CCc1cnc(NCCc2ccccc2)c(=O)n1CC(=O)NCc1ccc2[nH]ccc2c1, Cc1nc2cc(CNC(=O)Cn3c(C)cnc(NCCc4ccccc4)c3=O)ccc2[nH]1 is lower in pKi: 7.62 for the first, < 5.40 for the second.

Compared with Cc1n[nH]c2ccc(CNC(=O)Cn3c(C)cnc(NCCc4ccccc4)c3=O)cc12, Cc1cnc(NCCc2ccccc2)c(=O)n1CC(=O)NCc1ccc2[nH]nnc2c1 is 0.30 log units higher in pKi: 6.35 for the first, 6.65 for the second.

Compared with Cc1cnc(NCCc2ccc3c(c2)CCO3)c(=O)n1CC(=O)NCc1ccc2[nH]ncc2c1, COc1cccc(CCNc2ncc(C)n(CC(=O)NCc3ccc4[nH]ncc4c3)c2=O)c1 is 0.54 log units lower in pKi: 8.54 for the first, 8.00 for the second. The first binds more tightly here.

Going from Cc1cnc(NCCc2ccc(F)cc2)c(=O)n1CC(=O)NCc1ccc2c(N)noc2c1 to Cc1cnc(NCCc2ccccc2)c(=O)n1CC(=O)NCc1ccc2nc(N)sc2c1, the pKi falls from 7.74 to < 5.40. The first binds more tightly here.
